Reference: the supplement of paper PMC10307832

Experiments:
Test in all cases: relative viability (nuclei count vs DMSO), 5 days (fraction); higher = more cells survive
[1] = compound: CC1=CC=C(C=C1)C(=O)CN2C3=C(CCCC3)SC2=N [Pifithrin_alpha] + COc1cccc2cc(-c3nc([C@H]4CC[C@H](C(=O)O)CC4)n4ncnc(N)c34)[nH]c12 [OSI-027] (partner 0.5 µM)
Summary of the method: (§1)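 Lung cancer cell lines in 1536-well plates got either a single drug or a fixed anchor-drug dose together with five library-drug doses (not always all listed) in √10 steps, by pin tool, on the day after seeding. Nuclei were counted after 5 days, and relative viability is the treated-to-vehicle ratio of nuclei counts. Values are medians of duplicate plates.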

Axitinib + Tozasertib = compound: CNC(=O)c1ccccc1Sc1ccc2c(/C=C/c3ccccn3)n[nH]c2c1 [Axitinib] + Cc1cc(Nc2cc(N3CCN(C)CC3)nc(Sc3ccc(NC(=O)C4CC4)cc3)n2)n[nH]1 [Tozasertib] (partner 0.1 µM)
Summary of the method: as §1

Bemcentinib + Crizotinib = compound: Nc1nc(Nc2ccc3c(c2)CC[C@@H](N2CCCC2)CC3)nn1-c1cc2c(nn1)-c1ccccc1CCC2 [Bemcentinib] + C[C@@H](Oc1cc(-c2cnn(C3CCNCC3)c2)cnc1N)c1c(Cl)ccc(F)c1Cl [Crizotinib] (partner 1 µM)
Summary of the method: as §1

Bemcentinib + Vorinostat = compound: Nc1nc(Nc2ccc3c(c2)CC[C@@H](N2CCCC2)CC3)nn1-c1cc2c(nn1)-c1ccccc1CCC2 [Bemcentinib] + O=C(CCCCCCC(=O)Nc1ccccc1)NO [Vorinostat] (partner 1 µM)
Summary of the method: as §1

Cell Line | relative viability ([1]; first compound 1 µM) | relative viability ([1]; first compound 3.162 µM) | relative viability ([1]; first compound 10 µM) | relative viability ([1]; first compound 31.62 µM) | relative viability ([1]; first compound 100 µM) | relative viability (Axitinib + Tozasertib; first compound 0.005 µM) | relative viability (Axitinib + Tozasertib; first compound 0.01581 µM) | relative viability (Axitinib + Tozasertib; first compound 0.05 µM) | relative viability (Axitinib + Tozasertib; first compound 0.1581 µM) | relative viability (Axitinib + Tozasertib; first compound 0.5 µM) | relative viability (Bemcentinib + Crizotinib; first compound 0.04 µM) | relative viability (Bemcentinib + Crizotinib; first compound 0.1265 µM) | relative viability (Bemcentinib + Crizotinib; first compound 0.4 µM) | relative viability (Bemcentinib + Crizotinib; first compound 1.265 µM) | relative viability (Bemcentinib + Crizotinib; first compound 4 µM) | relative viability (Bemcentinib + Vorinostat; first compound 0.04 µM) | relative viability (Bemcentinib + Vorinostat; first compound 0.1265 µM) | relative viability (Bemcentinib + Vorinostat; first compound 0.4 µM) | relative viability (Bemcentinib + Vorinostat; first compound 1.265 µM) | relative viability (Bemcentinib + Vorinostat; first compound 4 µM)
LCLC-103H | 0.521 | 0.504 | 0.437 | 0.411 | 0.531 | 0.52 | 0.551 | 0.432 | 0.52 | 0.519 | 1.05 | 1.11 | 1.04 | 1.13 | 1.11 | 0.774 | 0.826 | 0.8 | 0.783 | 0.883
BEN | 0.294 | 0.278 | 0.306 | 0.286 | 0.266 | 0.495 | 0.574 | 0.582 | 0.513 | 0.466 | 0.936 | 1.16 | 0.935 | 0.845 | 0.775 | 0.567 | 0.627 | 0.562 | 0.56 | 0.6
NCI-H1755 | 0.57 | 0.687 | 0.675 | 0.525 | 0.566 | 0.608 | 0.541 | 0.605 | 0.632 | 0.617 | 0.901 | 0.878 | 0.838 | 0.939 | 0.901 | 0.783 | 0.808 | 0.754 | 0.823 | 0.923
LU99A | 0.266 | 0.27 | 0.273 | 0.23 | 0.281 | 0.27 | 0.266 | 0.264 | 0.369 | 0.419 | 0.549 | 0.629 | 0.542 | 0.574 | 0.532 | 0.472 | 0.482 | 0.468 | 0.477 | 0.436
NCI-H460 | 0.613 | 0.541 | 0.397 | 0.274 | 0.48 | 0.394 | 0.515 | 0.525 | 0.413 | 0.624 | 0.976 | 0.994 | 0.937 | 1.04 | 0.964 | 0.696 | 0.981 | 1.21 | 0.838 | 0.73
SK-LU-1 | 0.353 | 0.353 | 0.354 | – | 0.3 | 0.41 | 0.345 | 0.333 | 0.375 | 0.47 | 0.923 | 1.09 | 0.943 | 1.07 | 1.09 | 0.801 | 0.762 | 0.883 | 0.887 | 0.746
HARA | – | 0.482 | 0.58 | – | 0.441 | 0.125 | 0.0963 | 0.0847 | 0.106 | 0.123 | 1.02 | 1.28 | 1.22 | 1.08 | 1.03 | 0.402 | 0.658 | 0.573 | 0.645 | 0.543
ABC-1 | 0.358 | 0.526 | 0.35 | 0.299 | 0.326 | 0.19 | 0.226 | 0.14 | 0.179 | 0.183 | 1.06 | 1.26 | 0.934 | 0.95 | 1.02 | 1.01 | 1.1 | 1.11 | 0.856 | 0.892
